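Interpolation was linear, between the two tested concentrations surrounding the appropriate level; five concentrations were tested over 48 hours in 96-well plates. GI50 is the concentration that inhibits growth by half.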 Activity calls are given as the source filed them. No stated cut-off is given here; in the data, active = GI50 up to about 1.1 µM and inactive = higher.
Key:
Experiment in all cases: NCI-60 cell line screen, 48 h
MCF7 = tested on: MCF7
SK-MEL-28 = tested on: SK-MEL-28
HCT-15 = tested on: HCT-15
NCI-H460 = tested on: NCI-H460
A498 = tested on: A498
UACC-257 = tested on: UACC-257
SN12C = tested on: SN12C
UO-31 = tested on: UO-31
NCI/ADR-RES = tested on: NCI/ADR-RES
RXF 393 = tested on: RXF 393
SW-620 = tested on: SW-620
NCI-H522 = tested on: NCI-H522
A549 = tested on: A549
SNB-75 = tested on: SNB-75
OVCAR-3 = tested on: OVCAR-3
CAKI-1 = tested on: CAKI-1
OVCAR-4 = tested on: OVCAR-4
HCT-116 = tested on: HCT-116
HOP-92 = tested on: HOP-92

SMILES | GI50 (MCF7) | GI50 (SK-MEL-28) | GI50 (HCT-15) [µM] | GI50 (NCI-H460) | GI50 (A498) | GI50 (UACC-257) | GI50 (SN12C) | GI50 (UO-31) | GI50 (NCI/ADR-RES) | GI50 (RXF 393) | GI50 (SW-620) | GI50 (NCI-H522) | GI50 (A549) | GI50 (SNB-75) | GI50 (OVCAR-3) | GI50 (CAKI-1) | GI50 (OVCAR-4) | GI50 (HCT-116) | GI50 (HOP-92)
Cc1ccc(F)c2[nH]c(-c3ccccc3)cc(=O)c12 | 1.18 µM (inactive) | 3.11 µM (inactive) | 1.64 | 5.32 µM (inactive) | 39.4 µM (inactive) | 58.5 µM (inactive) | 7.1 µM (inactive) | 9.23 µM (inactive) | 3.82 µM (inactive) | 3.58 µM (inactive) | 4.67 µM (inactive) | 5.69 µM (inactive) | 4.97 µM (inactive) | 6.18 µM (inactive) | 6.28 µM (inactive) | > 100 µM (inactive) | > 70.5 µM (inactive) | 4.73 µM (inactive) | 
COc1ccc(N2C(=O)C3c4[nH]c5c(C)cccc5c4C4CCC(c5ccccc5)CC4C3C2=O)cc1 (stereo not drawn) | 6.28 µM (inactive) | 12 µM (inactive) | 11.9 | 5.68 µM (inactive) | 18.2 µM (inactive) | 16.8 µM (inactive) | 16.2 µM (inactive) | 20.9 µM (inactive) | 30.3 µM (inactive) |  | 9.23 µM (inactive) | 3.9 µM (inactive) | 8.57 µM (inactive) | 10.7 µM (inactive) | 24.8 µM (inactive) | 16.9 µM (inactive) | 11.1 µM (inactive) | 13.4 µM (inactive) | 15 µM (inactive)
CC(C)CC(=O)CC(O)C(Cl)(Cl)Cl (stereo not drawn) | > 100 µM (inactive) | > 100 µM (inactive) | > 100 |  | > 100 µM (inactive) | > 100 µM (inactive) | > 100 µM (inactive) | > 100 µM (inactive) | > 100 µM (inactive) | > 100 µM (inactive) | > 100 µM (inactive) | 3.95 µM (inactive) | > 100 µM (inactive) | > 100 µM (inactive) | > 100 µM (inactive) | > 100 µM (inactive) | > 100 µM (inactive) | > 100 µM (inactive) | 
CCOC(=O)N1CCC2(CC1)CC(=O)N(Nc1ccccc1)C2=O | 90.6 µM (inactive) | 74.3 µM (inactive) | > 100 | 94.4 µM (inactive) | > 100 µM (inactive) | > 100 µM (inactive) | > 100 µM (inactive) | 39.9 µM (inactive) | > 100 µM (inactive) | > 100 µM (inactive) | > 100 µM (inactive) |  | > 100 µM (inactive) | > 100 µM (inactive) | > 100 µM (inactive) | > 100 µM (inactive) | > 100 µM (inactive) | > 100 µM (inactive) | > 100 µM (inactive)
CC(=O)O[C@H]1CC[C@@]2(C)C(=CC[C@@H]3[C@@H]2CC[C@]2(C)NC(=O)/C(=C\c4ccccc4)C[C@@H]32)C1 | 14.9 µM (inactive) | 16.8 µM (inactive) | 18.6 | 26.9 µM (inactive) | 13.8 µM (inactive) | 17.5 µM (inactive) | 18.7 µM (inactive) | 15.7 µM (inactive) | 24.5 µM (inactive) | 13 µM (inactive) | 20.2 µM (inactive) | 15.6 µM (inactive) | 17.1 µM (inactive) | 19.1 µM (inactive) | 12.9 µM (inactive) | 25.9 µM (inactive) | 16.5 µM (inactive) | 15.6 µM (inactive) | 
COc1ccc(NC(=O)c2cc(NC(=O)/C=C/c3ccccc3)c(OC)c(OC)c2)cc1 | 3.69 µM (inactive) | 20.4 µM (inactive) | 3.99 | 11.7 µM (inactive) | 53.6 µM (inactive) | 44.1 µM (inactive) | 6.3 µM (inactive) | 1.98 µM (inactive) | 28.5 µM (inactive) | 11.2 µM (inactive) | 6.81 µM (inactive) |  | 7.55 µM (inactive) | 2.26 µM (inactive) | 60.1 µM (inactive) | 8.73 µM (inactive) | 53 µM (inactive) | 2.48 µM (inactive) | 16.8 µM (inactive)
O=C(O)Cc1ccc(Oc2nc3ccccc3nc2-c2ccccc2)cc1 | 56.5 µM (inactive) | 90.6 µM (inactive) | 65.3 | 57.8 µM (inactive) | > 100 µM (inactive) | > 100 µM (inactive) | 70 µM (inactive) | 36.6 µM (inactive) | 99.5 µM (inactive) | 29.2 µM (inactive) | 63.1 µM (inactive) | 42.1 µM (inactive) | 57.8 µM (inactive) | > 100 µM (inactive) | 32.6 µM (inactive) | 63.5 µM (inactive) | > 100 µM (inactive) | 85.7 µM (inactive) | 
NC(=O)N/N=C1\C[C@H]2CCCC[C@H]2C1 | > 100 µM (inactive) | > 100 µM (inactive) | > 100 | > 100 µM (inactive) | > 100 µM (inactive) | > 100 µM (inactive) | > 100 µM (inactive) | > 100 µM (inactive) | > 100 µM (inactive) |  | > 100 µM (inactive) | > 100 µM (inactive) | > 100 µM (inactive) | > 100 µM (inactive) | > 100 µM (inactive) | > 100 µM (inactive) | > 100 µM (inactive) | > 100 µM (inactive) | > 100 µM (inactive)
